Data set [1] addresses T1, ATP-citrate lyase (ACLY) (Homo sapiens, UniProt P53396, E599Q).
T1 sequence (P53396 1-1101 E599Q): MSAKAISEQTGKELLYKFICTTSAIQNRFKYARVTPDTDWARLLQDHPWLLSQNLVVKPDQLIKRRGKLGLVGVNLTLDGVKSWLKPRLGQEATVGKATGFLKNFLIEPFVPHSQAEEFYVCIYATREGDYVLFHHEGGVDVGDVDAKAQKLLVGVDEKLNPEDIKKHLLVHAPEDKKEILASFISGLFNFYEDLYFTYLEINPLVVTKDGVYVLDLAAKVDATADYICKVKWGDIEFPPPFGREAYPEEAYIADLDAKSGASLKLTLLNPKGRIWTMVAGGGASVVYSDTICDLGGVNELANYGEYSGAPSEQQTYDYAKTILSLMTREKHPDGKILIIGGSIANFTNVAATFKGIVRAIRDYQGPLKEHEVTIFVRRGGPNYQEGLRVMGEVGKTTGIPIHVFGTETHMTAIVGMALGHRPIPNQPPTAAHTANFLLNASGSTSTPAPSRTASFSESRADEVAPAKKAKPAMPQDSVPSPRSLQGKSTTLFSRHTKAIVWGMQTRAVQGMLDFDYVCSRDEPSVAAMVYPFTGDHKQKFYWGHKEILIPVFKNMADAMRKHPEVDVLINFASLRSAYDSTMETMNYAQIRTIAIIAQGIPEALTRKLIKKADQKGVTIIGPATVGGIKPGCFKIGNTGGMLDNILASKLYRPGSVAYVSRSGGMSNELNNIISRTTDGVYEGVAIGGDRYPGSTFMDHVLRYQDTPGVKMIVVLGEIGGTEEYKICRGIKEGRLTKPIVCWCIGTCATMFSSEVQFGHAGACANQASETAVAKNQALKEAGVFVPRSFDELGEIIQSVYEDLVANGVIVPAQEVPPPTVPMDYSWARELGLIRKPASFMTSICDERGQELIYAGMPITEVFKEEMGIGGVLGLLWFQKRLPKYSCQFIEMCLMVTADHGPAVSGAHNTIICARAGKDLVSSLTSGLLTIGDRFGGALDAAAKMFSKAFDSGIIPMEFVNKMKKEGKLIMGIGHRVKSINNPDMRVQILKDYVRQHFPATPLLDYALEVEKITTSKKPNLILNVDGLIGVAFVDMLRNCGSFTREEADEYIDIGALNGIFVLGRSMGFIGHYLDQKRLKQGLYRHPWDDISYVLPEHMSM
Briefly: cryo-EM structure. The class given is binding.

The target of data set [2] is T2, ATP-citrate lyase (ACLY) (Homo sapiens, UniProt P53396).
T2 sequence (P53396 1-1101): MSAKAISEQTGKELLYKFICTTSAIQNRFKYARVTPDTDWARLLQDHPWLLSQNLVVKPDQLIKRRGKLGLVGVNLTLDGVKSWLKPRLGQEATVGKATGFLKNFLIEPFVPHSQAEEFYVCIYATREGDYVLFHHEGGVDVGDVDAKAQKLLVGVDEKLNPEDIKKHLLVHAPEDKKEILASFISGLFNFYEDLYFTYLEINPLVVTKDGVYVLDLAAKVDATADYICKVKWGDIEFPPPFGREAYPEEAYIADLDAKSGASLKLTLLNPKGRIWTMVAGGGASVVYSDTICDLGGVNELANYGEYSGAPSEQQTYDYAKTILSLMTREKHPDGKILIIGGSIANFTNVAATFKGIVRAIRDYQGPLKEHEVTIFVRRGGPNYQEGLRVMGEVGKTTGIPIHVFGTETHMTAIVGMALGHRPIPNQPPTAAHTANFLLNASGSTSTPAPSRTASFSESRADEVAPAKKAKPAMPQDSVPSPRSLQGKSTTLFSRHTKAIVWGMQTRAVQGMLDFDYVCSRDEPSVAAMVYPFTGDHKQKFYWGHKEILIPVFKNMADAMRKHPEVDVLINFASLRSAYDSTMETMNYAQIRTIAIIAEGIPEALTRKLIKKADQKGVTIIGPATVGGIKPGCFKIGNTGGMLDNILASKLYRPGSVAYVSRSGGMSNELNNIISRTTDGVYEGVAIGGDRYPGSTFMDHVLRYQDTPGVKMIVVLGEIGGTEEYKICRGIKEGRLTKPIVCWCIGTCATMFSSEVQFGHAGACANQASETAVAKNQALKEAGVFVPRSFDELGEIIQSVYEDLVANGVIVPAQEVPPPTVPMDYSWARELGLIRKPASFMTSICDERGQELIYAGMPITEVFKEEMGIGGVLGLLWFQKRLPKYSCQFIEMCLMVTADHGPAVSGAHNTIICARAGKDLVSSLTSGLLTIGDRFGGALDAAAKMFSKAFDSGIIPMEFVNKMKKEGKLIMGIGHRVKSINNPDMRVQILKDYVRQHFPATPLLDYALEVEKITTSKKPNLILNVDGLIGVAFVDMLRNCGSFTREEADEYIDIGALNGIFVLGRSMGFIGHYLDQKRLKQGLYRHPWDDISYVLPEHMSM
The data set is described as follows: cryo-EM structure. It counts as binding.

The target of data set [3] is T2, ATP-citrate lyase (ACLY). Briefly: cryo-EM structure. It counts as binding. This is another data set of the same source.
Data set [4] addresses T2, ATP-citrate lyase (ACLY). Briefly: cryo-EM structure. The class given is binding. This is another data set of the same source.
Data set [5] deals with T2, ATP-citrate lyase (ACLY). Briefly: steady-state intrinsic fluorescence titration, one-site fit. It counts as binding.
The target in data set [6] is T3, ATP-citrate lyase (ACLY), full length human, wild type (human), P53396.
T3 chain: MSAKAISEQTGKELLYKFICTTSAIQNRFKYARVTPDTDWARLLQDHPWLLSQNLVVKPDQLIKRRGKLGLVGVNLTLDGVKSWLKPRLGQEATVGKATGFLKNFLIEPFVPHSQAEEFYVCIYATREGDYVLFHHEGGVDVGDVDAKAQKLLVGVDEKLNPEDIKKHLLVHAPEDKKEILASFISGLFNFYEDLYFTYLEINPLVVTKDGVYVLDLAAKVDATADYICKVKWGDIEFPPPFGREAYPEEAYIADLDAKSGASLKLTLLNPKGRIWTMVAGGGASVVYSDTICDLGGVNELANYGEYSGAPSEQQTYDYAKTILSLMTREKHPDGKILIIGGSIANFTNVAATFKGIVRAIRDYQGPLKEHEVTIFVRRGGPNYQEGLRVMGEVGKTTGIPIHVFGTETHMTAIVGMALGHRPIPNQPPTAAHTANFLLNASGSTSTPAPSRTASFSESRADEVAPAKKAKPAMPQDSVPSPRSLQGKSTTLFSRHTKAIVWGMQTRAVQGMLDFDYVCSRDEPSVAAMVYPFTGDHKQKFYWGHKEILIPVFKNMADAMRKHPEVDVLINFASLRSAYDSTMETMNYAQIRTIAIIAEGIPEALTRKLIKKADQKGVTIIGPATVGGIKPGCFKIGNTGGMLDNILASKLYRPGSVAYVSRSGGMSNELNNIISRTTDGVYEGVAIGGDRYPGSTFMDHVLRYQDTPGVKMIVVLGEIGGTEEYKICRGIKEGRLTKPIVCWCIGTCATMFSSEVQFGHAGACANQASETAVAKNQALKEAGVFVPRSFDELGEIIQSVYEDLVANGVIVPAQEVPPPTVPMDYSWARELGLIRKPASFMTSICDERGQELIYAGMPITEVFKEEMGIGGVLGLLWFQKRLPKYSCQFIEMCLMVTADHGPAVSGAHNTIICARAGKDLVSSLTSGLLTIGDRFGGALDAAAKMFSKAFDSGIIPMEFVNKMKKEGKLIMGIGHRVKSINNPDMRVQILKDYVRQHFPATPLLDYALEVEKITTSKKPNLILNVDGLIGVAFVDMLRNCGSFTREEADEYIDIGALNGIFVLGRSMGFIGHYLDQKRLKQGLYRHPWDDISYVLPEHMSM
Briefly: cryo-EM structure. The note with it: remark: other sources report otherwise.

The data set “cryo-EM structure” deals with the molecule itself. The data set is described as follows: cryo-EM structure.

`Nc1ncnc2c1ncn2[C@@H]1O[C@H](COP(=O)(O)OP(=O)(O)O)[C@@H](O)[C@H]1O` [ADP]: the “cryo-EM structure (2.85 Å) of mutant mixed with ATP, citrate and CoA” value at ATP-citrate lyase (ACLY) [1] is “ACLY-E599Q–ATP–citrate–CoA structure highlighting the bound ADP (hydrolyzed ATP) and phospho-citryl-CoA intermediate”.

In the case of `CC(=O)SCCNC(=O)CCNC(=O)[C@H](O)C(C)(C)COP(=O)(O)OP(=O)(O)OC[C@H]1O[C@@H](n2cnc3c(N)ncnc32)[C@H](O)[C@@H]1OP(=O)(O)O` [acetyl-CoA], the “cryo-EM structure (3.1 Å, D2) with OAA; DSF stabilization” value on ATP-citrate lyase (ACLY) [2] is “acetyl-CoA occupied the same binding site as CoA and was also stabilized by the same basic residues, R576 and K964”.

Molecule `O=C(O)CC(=O)C(=O)O` [OAA, oxaloacetate] yielded a Kd at ATP-citrate lyase (ACLY) [3] of 15 ± 4 µM.

Consider `CC(C)(COP(=O)(O)OP(=O)(O)OC[C@H]1O[C@@H](n2cnc3c(N)ncnc32)[C@H](O)[C@@H]1OP(=O)(O)O)[C@@H](O)C(=O)NCCC(=O)NCCS` [CoA, Coenzyme A], for which the “cryo-EM structure (3.0 Å, D2)” value on ATP-citrate lyase (ACLY) [4] was “CoA binds at the interface between the CSH and ASH domains of separate subunits”.

Molecule `O=C(O)CC(O)(CC(=O)O)C(=O)O` [citrate] gave a Kd on ATP-citrate lyase (ACLY) [5] of 3.4 ± 0.5 µM.

B1: ATP-citrate lyase (ACLY), full length human, wild type, P53396 1-1101 (enzyme)
chain: MSAKAISEQTGKELLYKFICTTSAIQNRFKYARVTPDTDWARLLQDHPWLLSQNLVVKPDQLIKRRGKLGLVGVNLTLDGVKSWLKPRLGQEATVGKATGFLKNFLIEPFVPHSQAEEFYVCIYATREGDYVLFHHEGGVDVGDVDAKAQKLLVGVDEKLNPEDIKKHLLVHAPEDKKEILASFISGLFNFYEDLYFTYLEINPLVVTKDGVYVLDLAAKVDATADYICKVKWGDIEFPPPFGREAYPEEAYIADLDAKSGASLKLTLLNPKGRIWTMVAGGGASVVYSDTICDLGGVNELANYGEYSGAPSEQQTYDYAKTILSLMTREKHPDGKILIIGGSIANFTNVAATFKGIVRAIRDYQGPLKEHEVTIFVRRGGPNYQEGLRVMGEVGKTTGIPIHVFGTETHMTAIVGMALGHRPIPNQPPTAAHTANFLLNASGSTSTPAPSRTASFSESRADEVAPAKKAKPAMPQDSVPSPRSLQGKSTTLFSRHTKAIVWGMQTRAVQGMLDFDYVCSRDEPSVAAMVYPFTGDHKQKFYWGHKEILIPVFKNMADAMRKHPEVDVLINFASLRSAYDSTMETMNYAQIRTIAIIAEGIPEALTRKLIKKADQKGVTIIGPATVGGIKPGCFKIGNTGGMLDNILASKLYRPGSVAYVSRSGGMSNELNNIISRTTDGVYEGVAIGGDRYPGSTFMDHVLRYQDTPGVKMIVVLGEIGGTEEYKICRGIKEGRLTKPIVCWCIGTCATMFSSEVQFGHAGACANQASETAVAKNQALKEAGVFVPRSFDELGEIIQSVYEDLVANGVIVPAQEVPPPTVPMDYSWARELGLIRKPASFMTSICDERGQELIYAGMPITEVFKEEMGIGGVLGLLWFQKRLPKYSCQFIEMCLMVTADHGPAVSGAHNTIICARAGKDLVSSLTSGLLTIGDRFGGALDAAAKMFSKAFDSGIIPMEFVNKMKKEGKLIMGIGHRVKSINNPDMRVQILKDYVRQHFPATPLLDYALEVEKITTSKKPNLILNVDGLIGVAFVDMLRNCGSFTREEADEYIDIGALNGIFVLGRSMGFIGHYLDQKRLKQGLYRHPWDDISYVLPEHMSM
Consider B1, for which the stoichiometry N in data set [6] was 4.

B2: ATP-citrate lyase (ACLY) E599Q catalytic mutant, full length human (enzyme, UniProt P53396 1-1101, looked up)
chain: MSAKAISEQTGKELLYKFICTTSAIQNRFKYARVTPDTDWARLLQDHPWLLSQNLVVKPDQLIKRRGKLGLVGVNLTLDGVKSWLKPRLGQEATVGKATGFLKNFLIEPFVPHSQAEEFYVCIYATREGDYVLFHHEGGVDVGDVDAKAQKLLVGVDEKLNPEDIKKHLLVHAPEDKKEILASFISGLFNFYEDLYFTYLEINPLVVTKDGVYVLDLAAKVDATADYICKVKWGDIEFPPPFGREAYPEEAYIADLDAKSGASLKLTLLNPKGRIWTMVAGGGASVVYSDTICDLGGVNELANYGEYSGAPSEQQTYDYAKTILSLMTREKHPDGKILIIGGSIANFTNVAATFKGIVRAIRDYQGPLKEHEVTIFVRRGGPNYQEGLRVMGEVGKTTGIPIHVFGTETHMTAIVGMALGHRPIPNQPPTAAHTANFLLNASGSTSTPAPSRTASFSESRADEVAPAKKAKPAMPQDSVPSPRSLQGKSTTLFSRHTKAIVWGMQTRAVQGMLDFDYVCSRDEPSVAAMVYPFTGDHKQKFYWGHKEILIPVFKNMADAMRKHPEVDVLINFASLRSAYDSTMETMNYAQIRTIAIIAQGIPEALTRKLIKKADQKGVTIIGPATVGGIKPGCFKIGNTGGMLDNILASKLYRPGSVAYVSRSGGMSNELNNIISRTTDGVYEGVAIGGDRYPGSTFMDHVLRYQDTPGVKMIVVLGEIGGTEEYKICRGIKEGRLTKPIVCWCIGTCATMFSSEVQFGHAGACANQASETAVAKNQALKEAGVFVPRSFDELGEIIQSVYEDLVANGVIVPAQEVPPPTVPMDYSWARELGLIRKPASFMTSICDERGQELIYAGMPITEVFKEEMGIGGVLGLLWFQKRLPKYSCQFIEMCLMVTADHGPAVSGAHNTIICARAGKDLVSSLTSGLLTIGDRFGGALDAAAKMFSKAFDSGIIPMEFVNKMKKEGKLIMGIGHRVKSINNPDMRVQILKDYVRQHFPATPLLDYALEVEKITTSKKPNLILNVDGLIGVAFVDMLRNCGSFTREEADEYIDIGALNGIFVLGRSMGFIGHYLDQKRLKQGLYRHPWDDISYVLPEHMSM
For B2, in “cryo-EM structure”, the binding result was “binds”.

The values above are taken from publication PMC8436250 (Nature structural & molecular biology, 2019).
